Results published in patent US12121614B2, “Delayed release composition for peroral administration” (VICORE PHARMA AB, priority 2020, dated 2024).
Values joined by “and” are separate entries in the source; they are usually repeats but may differ in a detail not shown here. Equal values may be shown once. Read-outs that look alike come from different tables or passages of the source.

Assays:
[1] = Phase I clinical trial, food effect part: pharmacokinetics of C21 fed vs fasted; assay type: in vivo, human; conditions: for AUC(0-t) / AUC(0-inf) / Cmax / Vd/F / half-life / Tmax: both sexes, human, plasma; for Tmax: read-out: tmax, Median
Description: In addition, the effect of food on the pharmacokinetics (PK) of C21 was investigated in an open label manner in 10 male and female subjects at a single oral dose of 75 mg.
Subjects were to receive two single doses of 75 mg of C21 at least 3 days apart in a randomised fashion either in fasted or in fed state. A Food and Drug Administration (FDA)-recommended high-fat breakfast was used to investigate maximum effects.
In the food effect part of the study, the subjects' ages ranged from 22 to 44 years with a median age of 36.0 years. Most of the subjects were Caucasian (9 (90.0% of) subjects) and male (8 (80.0% of) subjects). The mean (SD) BMI of overall subjects was 23.96 (2.223) kg/m^2.
C21 sodium salt as a pre-frozen oral solution (comprising 2.5 mg/mL C21 sodium salt sodium salt dissolved in an aqueous carbonate buffer) with a composition as shown in Table 1 below.
Plasma concentrations below the lower limit of quantification (LLOQ) were presented as below the lower limit of quantification (BLQ). Plasma concentrations for C21 were summarised by study part, dose cohort and nominal time point.
Pharmacokinetic parameters were calculated by non-compartmental analysis methods from the concentration-time data using Phoenix® WinNonlin® (Version 8.0) or higher following these guidelines: • Actual sampling times relative to dosing rather than nominal times were used in the calculation of all derived pharmacokinetic parameters. • There was no imputation of missing data. • Any subjects with missing concentration data were included in the PK analysis set provided that at least Cmax and AUC(0-t) could be reliably calculated.
All BLQ values pre-dose and in the absorption phase prior to the first quantifiable concentration were substituted by zeros. Single BLQs that fell between two evaluable concentrations were substituted by missing, before the calculation of the PK variables. Consecutive BLQs that fell between evaluable concentrations were substituted by zero, before the calculation of the PK variables. Terminal BLQ values were disregarded.
Bioequivalence of PK parameters from the open label food effect arm were determined by constructing 90% confidence intervals around the estimated difference between the Test and Reference treatments using a mixed effects model based on natural log transformed data. The mixed effects model was implemented using SAS Proc Mixed, with REML estimation method and Kenward-Roger degrees of freedom algorithm.
Natural logarithm transformed AUC(0-inf) (if data permitted), AUC(0-24) and Cmax were analysed using a mixed effects model with sequence, period and treatment as fixed effects and subject within sequence as a random effect. Estimates of the mean differences (Test-Reference) and corresponding 90% confidence intervals were obtained from the model. The estimated mean differences and 90% confidence intervals for the differences were exponentiated to provide estimates of the ratio of geometric means (Test/Reference) and 90% confidence intervals for the ratios. C21 in the fasted state is the Reference treatment and C21 in the fed state is the Test treatment.
The comparisons assessing the food effect (bioequivalence) were used to assess the effect of food on the rate and extent of absorption of C21 administered under fasted and fed conditions with estimates of the mean differences as well as corresponding 90% confidence intervals being presented.
The model is a mixed analysis of variance (ANOVA) model with a fixed term for sequence, period, treatment, and a random effect for subject within sequence.

[2] = Phase I clinical trial: safety and tolerability of C21 in healthy subjects; assay type: in vivo, human; conditions: healthy male and female subjects, gradual escalation of dose
Description: A Phase I clinical trial was conducted to evaluate the safety, tolerability, and pharmacokinetics of C21 in healthy male and female subjects. The study design allowed a gradual escalation of dose with intensive clinical data and PK monitoring to ensure the safety and wellbeing of subjects.
The study was designed and conducted in accordance with the CRO's standard operating procedures (SOPs), which comply with the ethical principles laid down in the International Council for Harmonisation (ICH) Good Clinical Practice (GCP) guidance as required by the major regulatory authorities, and in accordance with the Declaration of Helsinki as amended by the 48th General Assembly in October 1996.

[3] = 75 mg, fed (Test) vs fasted (Reference)
[4] = 75 mg, higher for the fed treatment
[5] = single oral dose 75 mg, Fasted, N = 9
[6] = single oral dose 75 mg, Fed, N = 10

For CCCCOC(=O)NS(=O)(=O)c1sc(CC(C)C)cc1-c1ccc(Cn2ccnc2)cc1 [C21, N-butyloxycarbonyl-3-(4-imidazol-1-ylmethylphenyl)-5-iso-butylthiophene-2-sulfonamide], the “AUC(0-24), Geometric Mean Ratio (Fed:Fasted)” value [1, 3] was 0.45 and 0.449, the “AUC(0-inf), Geometric Mean Ratio (Fed:Fasted)” value [1, 3] was 0.45 and 0.449 and the “Cmax, Geometric Mean Ratio (Fed:Fasted)” value [1, 3] was 0.16 and 0.155. The “CL/F, fed treatment compared to fasted treatment” value [1, 4] was “approximately 2 fold”, the “VZ/F, fed treatment compared to fasted treatment” value [1, 4] was 3 fold and the “food effect on pharmacokinetics” value ([1]; Phase I clinical trial in healthy subjects) was “a pronounced food effect was observed”. The AUC(0-t) ([1]; oral, 75 mg, Fasted (N = 9), mixed ANOVA model, read-out: AUC(0-24), Geometric Mean (95% CI), mixed effects model) was 1710 ng·h/mL, the AUC(0-inf) ([1]; oral, 75 mg, Fasted (N = 9), mixed ANOVA model, read-out: AUC(0-inf), Geometric Mean (95% CI), mixed effects model) was 1710 ng·h/mL and the Cmax ([1]; oral, 75 mg, Fasted (N = 9), mixed ANOVA model, read-out: Cmax, Geometric Mean (95% CI), mixed effects model) was 1700 ng/mL. It also gave an AUC(0-t) ([1]; oral, 75 mg, Fed (N = 10), mixed ANOVA model, read-out: AUC(0-24), Geometric Mean (95% CI), mixed effects model) of 768 ng·h/mL, an AUC(0-inf) ([1]; oral, 75 mg, Fed (N = 10), mixed ANOVA model, read-out: AUC(0-inf), Geometric Mean (95% CI), mixed effects model) of 769 ng·h/mL and a Cmax ([1]; oral, 75 mg, Fed (N = 10), mixed ANOVA model, read-out: Cmax, Geometric Mean (95% CI), mixed effects model) of 263 ng/mL. It also gave a Cmax ([1]; po, 75 mg, single oral dose 75 mg, Fasted, N = 9, plasma, read-out: Cmax, Arithmetic Mean) of 1810 ng/mL, a Cmax ([1]; po, 75 mg, single oral dose 75 mg, Fasted, N = 9, plasma, read-out: Cmax, Geometric Mean) of 1710 ng/mL and an AUC(0-t) ([1]; po, 75 mg, single oral dose 75 mg, Fasted, N = 9, read-out: AUC(0-6), Arithmetic Mean) of 1850 ng·h/mL. It also gave an AUC(0-t) ([1]; po, 75 mg, single oral dose 75 mg, Fasted, N = 9, read-out: AUC(0-6), Geometric Mean) of 1760 ng·h/mL, an AUC(0-t) ([1]; po, 75 mg, single oral dose 75 mg, Fasted, N = 9, read-out: AUC(0-12), Arithmetic Mean) of 1860 ng·h/mL and an AUC(0-t) ([1]; po, 75 mg, single oral dose 75 mg, Fasted, N = 9, read-out: AUC(0-12), Geometric Mean) of 1770 ng·h/mL. For the same compound, the AUC(0-t) ([1]; po, 75 mg, single oral dose 75 mg, Fasted, N = 9, read-out: AUC(0-24), Arithmetic Mean) was 1860 ng·h/mL, the AUC(0-inf) ([1]; po, 75 mg, single oral dose 75 mg, Fasted, N = 9, read-out: AUC(0-inf), Arithmetic Mean) was 1860 ng·h/mL and the AUC(0-inf) ([1]; po, 75 mg, single oral dose 75 mg, Fasted, N = 9, read-out: AUC(0-inf), Geometric Mean) was 1770 ng·h/mL. The AUC(0-t) ([1]; po, 75 mg, single oral dose 75 mg, Fasted, N = 9, read-out: AUC(0-t), Arithmetic Mean) was 1840 ng·h/mL, the AUC(0-t) ([1]; po, 75 mg, single oral dose 75 mg, Fasted, N = 9, read-out: AUC(0-t), Geometric Mean) was 1750 ng·h/mL and the Vd/F ([1]; po, 75 mg, single oral dose 75 mg, Fasted, N = 9, read-out: Vz/F, Arithmetic Mean) was 36.6 L. For the same compound, the Vd/F ([1]; po, 75 mg, single oral dose 75 mg, Fasted, N = 9, read-out: Vz/F, Geometric Mean) was 34.8 L, the half-life ([1]; po, 75 mg, single oral dose 75 mg, Fasted, N = 9, read-out: t1/2, Arithmetic Mean) was less than 60 min and the half-life ([1]; po, 75 mg, single oral dose 75 mg, Fasted, N = 9, read-out: t1/2, Geometric Mean (converted)) was 34.1 min. It also gave a Tmax ([1]; po, 75 mg, single oral dose 75 mg, Fasted, N = 9) of 40.2 min, a Cmax ([1]; po, 75 mg, single oral dose 75 mg, Fed (high-fat breakfast), N = 10, plasma, read-out: Cmax, Arithmetic Mean) of 269 ng/mL and a Cmax ([1]; po, 75 mg, single oral dose 75 mg, Fed (high-fat breakfast), N = 10, plasma, read-out: Cmax, Geometric Mean) of 263 ng/mL. The AUC(0-t) ([1]; po, 75 mg, single oral dose 75 mg, Fed, N = 10, read-out: AUC(0-6), Arithmetic Mean) was 747 ng·h/mL, the AUC(0-t) ([1]; po, 75 mg, single oral dose 75 mg, Fed, N = 10, read-out: AUC(0-6), Geometric Mean) was 732 ng·h/mL and the AUC(0-t) ([1]; po, 75 mg, single oral dose 75 mg, Fed, N = 10, read-out: AUC(0-12), Arithmetic Mean) was 790 ng·h/mL. For the same compound, the AUC(0-t) ([1]; po, 75 mg, single oral dose 75 mg, Fed, N = 10, read-out: AUC(0-12), Geometric Mean) was 767 ng·h/mL, the AUC(0-t) ([1]; po, 75 mg, single oral dose 75 mg, Fed, N = 10, read-out: AUC(0-24), Arithmetic Mean) was 792 ng·h/mL and the AUC(0-t) ([1]; po, 75 mg, single oral dose 75 mg, Fed, N = 10, read-out: AUC(0-24), Geometric Mean) was 768 ng·h/mL. It also gave an AUC(0-inf) ([1]; po, 75 mg, single oral dose 75 mg, Fed, N = 10, read-out: AUC(0-inf), Arithmetic Mean) of 792 ng·h/mL, an AUC(0-inf) ([1]; po, 75 mg, single oral dose 75 mg, Fed, N = 10, read-out: AUC(0-inf), Geometric Mean) of 768 ng·h/mL and an AUC(0-t) ([1]; po, 75 mg, single oral dose 75 mg, Fed, N = 10, read-out: AUC(0-t), Arithmetic Mean) of 767 ng·h/mL. It also gave an AUC(0-t) ([1]; po, 75 mg, single oral dose 75 mg, Fed, N = 10, read-out: AUC(0-t), Geometric Mean) of 742 ng·h/mL, a Vd/F ([1]; po, 75 mg, single oral dose 75 mg, Fed, N = 10, read-out: Vz/F, Arithmetic Mean) of 120 L and a Vd/F ([1]; po, 75 mg, single oral dose 75 mg, Fed, N = 10, read-out: Vz/F, Geometric Mean) of 118 L. It also gave a half-life ([1]; po, 75 mg, single oral dose 75 mg, Fed, N = 10, read-out: t1/2, Arithmetic Mean) of less than 60 min, a half-life ([1]; po, 75 mg, single oral dose 75 mg, Fed, N = 10, read-out: t1/2, Geometric Mean (converted)) of 50.1 min and a Tmax ([1]; po, 75 mg, single oral dose 75 mg, Fed, N = 10) of 75.6 min. The “% AUCex, Arithmetic Mean” value [1, 5] was 0.89%, the “CL/F, Arithmetic Mean” value [1, 5] was 44.52 L/h and the “CL/F, Geometric Mean” value [1, 5] was 42.44 L/h. For the same compound, the “Cav, Arithmetic Mean” value [1, 5] was 77.4 ng/mL, the “Cav, Geometric Mean” value [1, 5] was 73.6 ng/mL and the “Cmax, Geometric Mean” value ([1]; single oral dose 75 mg, Fed (high-fat breakfast), N = 10, plasma) was 263.2 ng/mL. For the same compound, the “% AUCex, Arithmetic Mean” value [1, 6] was 3.5%, the “AUC(0-12), Geometric Mean” value [1, 6] was 767.4 ng·h/mL and the “CL/F, Arithmetic Mean” value [1, 6] was 100.3 L/h. For the same compound, the “CL/F, Geometric Mean” value [1, 6] was 97.59 L/h, the “Cav, Arithmetic Mean” value [1, 6] was 33.0 ng/mL and the “Cav, Geometric Mean” value [1, 6] was 32.0 ng/mL. The safety and tolerability [2] was “safe and generally well tolerated” and the serious adverse events [2] was “No serious adverse events”.
